{
  "source": "patent US20060121498A1",
  "about": "“Enzymes involved in apoptosis” (EiRx Therapeutics Limited, priority 2003, published 2006)",
  "key": {"[1]": {"conditions": "cited from earlier work"}, "[2]": {"system": "neutrophils", "experiment": "Neutrophil apoptosis, sub G1 analysis (DNA fragmentation)", "type": "cell-based, human", "experimental": "Neutrophils are isolated from the blood as described in WO 02/04657 and resuspended at a concentration of 2×10^6/ml. Five hundred microlitres are pipetted into wells of a 24 well plate and incubated in the presence or absence of survival factors.\nAfter this incubation, the neutrophils are carefully resuspended by gentle agitation and the total contents of the well are placed into an eppendorf and centrifuged @2800 rpm for 2 min @ RT in a minifuge. The cell pellet is carefully resuspended in 300 μl of ice cold hypotonic fluorochrome solution (50 μg/ml Propidium Iodide, 0.1% Sodium Citrate and 0.1% Triton X-100) and placed in a fridge for 24 h @ 4° C.\nPrepared samples are analysed with a FacsCalibre flow cytometer (Becton Dickinson) using double discrimination to ensure single cell suspension with Log Forward and Side Scatter Parameter acquisition.\nNeutrophils are seeded at 2×10^6/ml in a 24 well plate in full culture medium (1 ml/well). A PI3K inhibitor (Ly94002) is added to the neutrophils to a final concentration of 20 μM prior to the addition of GM-CSF (50 units/ml). Control wells received either no GM-CSF or GM-CSF (50 units/ml) in the absence of inhibitor. Neutrophils are cultured for 18 h at 37° C. prior to harvest and prepared for sub G1 analysis, as previously described.\nNeutrophils are seeded at 2×10^6/ml in a 24 well plate in full culture medium (1 ml/well). […]"}, "[3]": {"system": "CAL27 tumour cell line", "conditions": "relatively low basal DPD activity; cited from earlier work"}, "[4]": {"system": "MIAPaCa-2 and HuTu80", "conditions": "cited from earlier work"}, "[5]": {"system": "MIAPaCa-2 cells", "conditions": "nude mouse, subcutaneous MIAPaCa-2; cited from earlier work"}, "[6]": {"system": "Walker 256 tumour", "conditions": "diet of 5.5% GLA; cited from earlier work"}, "[7]": {"system": "bone marrow derived DC", "conditions": "pretreatment; cited from earlier work"}, "[8]": {"system": "MCF-7 human breast cancer cells", "conditions": "inhibition of FAS with cerulenin; cited from earlier work"}, "[9]": {"system": "redox related genes such as heme oxygenase 1 and Glutathione reductase", "conditions": "cited from earlier work"}, "[10]": {"system": "TF-1 cells", "experiment": "Overexpression of identified genes in TF1 cells, viability by FSc/SSc", "type": "cell-based, human", "conditions": "96 h post transduction, versus control plasmid Pms*H", "from_the_text": "To assess the apoptotic activity of the apoptosis-associated genes identified herein, TF1 cells are transduced with either a plasmid expressing the gene of interest coding sequence or a control plasmid (PMs*H). The gene coding sequence encoding the amino acid sequence set out in Table 1 is cloned into the retroviral expression vector pMSCV (Clontech). Plasmids are transfected into the retroviral packaging cell line Phoenix 293 (Standford) using the CalPhos Mammalian Transfection Kit (Clontech) according to the manufacturer's instructions. Retrovirus is harvested 72 hours later. Retrovirus is transduced to TF 1 cells by incubation for 18 hours. Media is changed and cells are incubated for an additional 96 hours.\nThe cells are examined for viability after 96 hours using forward scatter/side scatter parameters."}, "[11]": {"system": "TF-1 cells", "experiment": "TF-1 apoptosis by light scatter analysis (live gate)", "type": "cell-based, human", "conditions": "48 h with GM-CSF 2 ng/ml (35% upon factor withdrawal)", "experimental": "Light Scatter Analysis takes advantage of the fact that by using the laser beam of a flow cytometer one can determine the size (Forward Scatter) and granularity (Side Scatter) of a cell. The morphological changes associated with apoptosis, such as decreased size (shrinkage) and granularity affect these parameters. As a consequence, cells undergoing apoptosis will move to the left and slightly down, from the parameters of a healthy population.\nTF-1 cells are plated into 24 well plates (2×10^5/ml) and are cultured for 48 h in the presence or absence of GM-CSF (2 ng/ml). Cells are then harvested by centrifugation (1000 rpm, for 10 min) and washed in PBS. The pellet is resuspended in PBS (2×10^5 cells/ml) and acquired by a FacsCalibre. Forward and Side scatter parameters are assessed using Cell Quest software.\nCulturing TF-1 cells in the absence of GM-CSF induces cell death. This death induces morphological changes in the Forward and Side Scatter parameters that is detected by FacsCalibre analysis. Consequently, by observing the percentage of cells in the live gate (which is an arbitrary region pre-set on a healthy population of TF-1 cells grown in the presence of GM-CSF (2 ng/ml)), one observes that there is a decrease in the percentage of cells with these light scatter parameters, when cytokine is withdrawn."}, "[12]": {"system": "TF-1 cells", "experiment": "TF-1 apoptosis by sub G1 analysis", "type": "cell-based, human", "conditions": "48 h with GM-CSF (approximately 55% in its absence)", "experimental": "TF-1 cells are cultured for 48 h in the presence or absence of GM-CSF (2 ng/ml). Cells are then harvested by centrifugation (1000 rpm, for 10 min) and washed in PBS. The pellet is resuspended in PBS (2×10^5 cells/ml) and 1 ml is then added in a dropwise fashion to ice cold 70% EtoH whilst continuously vortexing. Cells are then permeabilized by incubating at −20° C. for 24 h. To stain DNA, cells are centrifuged and washed in PBS. Cells are resuspended in 500 μl Propidium Iodide Buffer (Propidium iodide (50 μg/ml; Sigma); RNAse A (50 μg/ml; Sigma) in Phosphate Buffered Saline (PBS; Sigma) for 15 min in the dark before flow cytometric analysis using a FacsCalibre (Becton Dickinson). Analysis is performed using Cell Quest software."}, "[13]": {"conditions": "relatively high basal DPD activity"}},
  "note": "Where two headings read alike, the source gives them in different places.",
  "data": [
    {"compound": "O=c1[nH]cc(F)c(=O)[nH]1", "note": "[5FU, 5-fluorouracil]", "values": [
      {"measurement": "patients suffering from grade IV neutropenia", "setting": "[1]; patients with a decreased DPD activity", "result": 55, "unit": "%"},
      {"measurement": "patients suffering from grade IV neutropenia", "setting": "[1]; patients with a normal DPD activity", "result": 13, "unit": "%"}
    ]},
    {"compound": "CCCCCCCCCCCCCCCCCCOC(=O)OC1C(O)C(O)C(CO)C(O)C1OC", "note": "(stereo not shown) [AKT inhibitor]", "values": [
      {"measurement": "GM-CSF mediated survival, sub G1 analysis", "setting": "[2]; inhibitor 20 μM plus GM-CSF 50 units/ml, 18 h", "result": "survival is abrogated"}
    ]},
    {"compound": "Oc1cc(O)c(Cl)cn1", "note": "[CDHP, 5-chloro-2,4-dihydroxypyridine]", "values": [
      {"measurement": "5-FU cytotoxicity", "setting": "[3]", "result": "did not have any effect on 5-FU cytotoxicity"},
      {"measurement": "molar ratio (CDHP:5-FU) at maximum effect", "setting": "[4]; enhancement of 5-FU cytotoxicity", "result": "more than 0.2"},
      {"measurement": "cell proliferation, CDHP by itself", "setting": "[4]; in vitro study", "result": "did not influence cell proliferation by itself"},
      {"measurement": "5-FU cytotoxicity", "setting": "[4]; [13]", "result": "enhanced 5-FU cytotoxicity in a concentration-dependent manner"},
      {"measurement": "5-fluorouracil (5-FU) degradation", "setting": "[4]; [13]", "result": "inhibit 5-fluorouracil (5-FU) degradation"}
    ]},
    {"compound": "O=c1[nH]c(=O)n(C2CCCO2)cc1F", "note": "(stereo not shown) [FT, tegafur]", "values": [
      {"measurement": "tumour growth inhibition", "setting": "[5]", "result": "21+/−25%"}
    ]},
    {"compound": "CCCCC/C=C\\C/C=C\\C/C=C\\CCCCC(=O)O", "note": "[GLA, Gamma-linolenic acid]", "values": [
      {"measurement": "decrease in CTP1 activity", "setting": "[6]", "result": 62, "unit": "%"},
      {"measurement": "reduction of tumour growth", "setting": "[6]", "result": 45, "unit": "%"}
    ]},
    {"compound": "N[C@H]1CONC1=O", "note": "[L-cycloserine]", "values": [
      {"measurement": "endogenous ceramide levels and tumor-induced DC apoptosis", "setting": "[7]", "result": "reduced endogenous ceramide levels and protected DC from tumor-induced apoptosis"}
    ]},
    {"compound": "CCCCCCCCCCCCCC(=O)O[C@@H]1[C@@H](C)[C@@]2(O)[C@@H](C=C(CO)C[C@]3(O)C(=O)C(C)=C[C@@H]23)[C@@H]2C(C)(C)[C@]12OC(C)=O", "note": "[PMA]", "values": [
      {"measurement": "endogenous ceramide levels and tumor-induced DC apoptosis", "setting": "[7]", "result": "reduced endogenous ceramide levels and protected DC from tumor-induced apoptosis"}
    ]},
    {"compound": "C/C=C/C/C=C/CCC(=O)[C@H]1O[C@H]1C(N)=O", "note": "[cerulenin]", "values": [
      {"measurement": "CPT-1 and fatty acid oxidation", "setting": "[8]", "result": "causes carnitine palmitoyltransferase-1 (CPT-1) inhibition and fatty acid oxidation inhibition"}
    ]},
    {"compound": "CCOC(=O)[C@@]1(CCCCCCOc2ccc(Cl)cc2)CO1", "note": "[etomoxir]", "values": [
      {"measurement": "expression of redox related genes", "setting": "[9]", "result": "induces up regulation of redox related genes"}
    ]},
    {"compound": "ELAFIN", "values": [
      {"measurement": "apoptosis/viability by FSc/SSc parameters", "setting": "[10]", "result": "induces apoptosis in TF-1 cells"}
    ]},
    {"compound": "GM-CSF: 22 kDa proinflammatory cytokine released by several activated cell types including monocytes and T cells", "values": [
      {"measurement": "percentage of cells with a sub G1 profile", "setting": "[2]; neutrophils cultured overnight with GM-CSF (65% without)", "result": 9.7, "unit": "%"},
      {"measurement": "percentage of cells in the live gate", "setting": "[11]", "result": 77, "unit": "%"},
      {"measurement": "cells with sub-G1 profiles", "setting": "[12]", "result": 5, "unit": "%"}
    ]}
  ]
}
